Laboratory results reported in paper PMC12041767 (Journal of immunology (Baltimore, Md. : 1950), 2025).

Tests used:
[1] = molecular target: NKG2A/CD94 (Homo sapiens, UniProt P26715+Q13241); assay type: binding
[2] = molecular target: HLA-E*01:03 (Homo sapiens, UniProt P13747); assay type: binding; conditions: S/P relative to positive control […] or […], tested at least two times, median, Figure 1

Chain of NKG2A/CD94 (P26715 whole entry): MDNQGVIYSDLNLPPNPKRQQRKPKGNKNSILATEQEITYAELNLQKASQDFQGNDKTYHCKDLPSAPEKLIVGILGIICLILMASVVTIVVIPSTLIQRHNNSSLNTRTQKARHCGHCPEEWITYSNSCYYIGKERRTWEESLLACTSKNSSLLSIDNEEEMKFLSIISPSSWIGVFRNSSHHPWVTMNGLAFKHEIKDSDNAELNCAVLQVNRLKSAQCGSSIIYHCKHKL
Chain of NKG2A/CD94 (Q13241 whole entry): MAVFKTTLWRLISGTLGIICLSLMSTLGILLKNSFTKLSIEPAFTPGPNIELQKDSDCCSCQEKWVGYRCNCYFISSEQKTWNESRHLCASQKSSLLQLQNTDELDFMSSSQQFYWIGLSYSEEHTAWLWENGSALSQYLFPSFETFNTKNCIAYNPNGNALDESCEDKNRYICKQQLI

Sequence | Interaction of thermal exchanged HLA-E TM/peptide complex with NKG2A/CD94, in words [1] | Peptide binding affinity for HLA-E*01:03 (signal to positive, S/P, ratio), in words [2]
VMAPRTLVL [Mtb55-VL9-hybrid] | could interact | increased the affinity
VMTPRTLTL [Mtb34-VL9-hybrid] | – | increased the affinity
